Assay: Peptide stability in fresh culture media (W0, MV, EMM)
Assay type: physicochemical
Experimental: Stability of the peptides was analyzed in freshly prepared media and in the supernatant from yeast cultivations in W0 and MV media. For this purpose, the yeast cultivations were initiated in 10 mL media with an optical density (OD600nm) of 1 and were cultivated for 24 h at 30 °C with continuous shaking. Subsequently, 2 mL of the culture was sampled and centrifuged at 5000 × g for 5 min. The resulting supernatant was removed and stored at -20 °C until LC–MS analysis. To study the time-dependent peptide stability, yeast supernatant and fresh culture medium with a volume of 900 µL each were spiked with 100 µL of a synthetic peptide mixture containing 10 µM of each α-factor and CSF in HPLC-grade water with 0.125% FA. The samples were analyzed immediately after sampling and subsequently over seven 3h intervals, in order to determine the remaining peptide concentrations. […]
The stability of the peptides also depends on their rate of enzymatic conversation through the action of proteases or peptidases (see review) secreted by cells during the cultivation. Therefore, the concentration of a peptide mixture (containing both α-factor and CSF) was monitored over a period of at least 18 h in the presence of fresh culture media or the supernatant of cultured yeast cells (harvested after 24 h). […]

Row | Substance | Peptide stability in EMM media (typical EMM media used for S. pombe, without and with 50 % ACN, LC-MS/MS, Fig. S7) | Concentration over 18 h in fresh culture media (fresh W0 pH = 5.6 or MV pH = 6.5, 1 µM peptide, glass vessels, 3 h intervals, LC-MS/MS normalized peak area, Fig. S5)
1 | TYADFL RAYQSW NTFVNP DRPNL [P-factor, pheromone from S. pombe, obtained from Davids Biotechnologie] | demonstrated | –
2 | WHWLQLKPQPMY [α-factor, signal peptide (pheromone) from S. cerevisiae, ordered from UMEX GmbH] | – | remained nearly constant

— PMC11876276, “LC–MS/MS quantification of bacterial and fungal signal peptides via direct injection: a case study of cross-kingdom communication” (Analytical and Bioanalytical Chemistry, 2025)
